Structures are written as SMILES.

The subject of this experiment is HCV genotype 1b replicon in Huh 7 cells. The experiment in a line: HCV replicon assay (1b_Huh-Luc/Neo-ET cell line, luciferase readout). The format is cell-based. Particulars: Hepatitis C virus; Table 2; genotype 1b replicon, Huh 7 cells, 72 h, luciferase; read-out: Inhibition of HCV genotype 1b. The method, boiled down:
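Replicon level was read as luciferase signal after 72 h compound exposure, triplicate wells, starting the day after cells were plated. Cell line: 1b_Huh-Luc/Neo-ET. Values normalised to control as percent, and EC50 fitted with a variable-slope sigmoid; determinations repeated.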

Regarding `COC(=O)N[C@H](C(=O)N1CC[C@H](O)[C@H]1c1ncc(-c2ccc3cc(-c4ccc(-c5cnc([C@@H]6CCCN6C(=O)[C@@H](NC(=O)OC)C(C)C)[nH]5)cc4)ccc3c2)[nH]1)C(C)C` [compound 306], the EC50 was under 1 nM.
The value for `COC(=O)N[C@H](C(=O)N1CCCC[C@H]1c1ncc(-c2ccc3cc(-c4ccc(-c5cnc([C@@H]6CCCN6C(=O)[C@@H](NC(=O)OC)C(C)C)[nH]5)cc4)ccc3c2)[nH]1)C(C)C` [compound 307] was under 1 nM.
The value for `COC(=O)N[C@H](C(=O)N1CCC[C@H]1c1ncc(-c2ccc(-c3ccc4cc(-c5cnc([C@@H]6CSCCN6C(=O)[C@@H](NC(=O)OC)C(C)C)[nH]5)ccc4c3)cc2)[nH]1)C(C)C` [compound 308] was under 1 nM.
The value for `COC(=O)N[C@H](C(=O)N1CCC[C@H]1c1ncc(-c2ccc(-c3ccc4cc(-c5cnc([C@@H]6CCCN6C(=O)[C@@H](NC(=O)OC)C(C)C)[nH]5)ccc4c3)c(C#N)c2)[nH]1)C(C)C` [compound 309] was under 1 nM; that for `COC(=O)N[C@H](C(=O)N1CCC[C@H]1c1ncc(-c2ccc(-c3ccc4cc(-c5cnc([C@@H]6CCCN6C(=O)[C@@H](NC(=O)OC)C(C)C)[nH]5)ccc4c3)c(C(F)(F)F)c2)[nH]1)C(C)C` [compound 310] was under 1 nM; that for `COC(=O)N[C@H](C(=O)N1CCC[C@H]1c1ncc(-c2ccc3cc(-c4ccc(-c5cnc([C@@H]6CCCN6C(=O)[C@@H](NC(=O)OC)C(C)C)[nH]5)nn4)ccc3c2)[nH]1)C(C)C` [compound 312] was under 1 nM.
Consider `COC(=O)N[C@H](C(=O)N1CCC[C@H]1c1ncc(-c2ccc3cc(-c4ccc(-c5cnc([C@@H]6CCCN6C(=O)[C@@H](NC(=O)OC)C6CCOCC6)[nH]5)nn4)ccc3c2)[nH]1)C1CCOCC1` [compound 314], for which the EC50 is under 1 nM.
The figure for `COC(=O)N[C@H](C(=O)N1CCC[C@H]1c1ncc(-c2ccc3cc(-c4ccc(-c5cnc([C@@H]6CCCN6C(=O)[C@H](NC(=O)OC)c6ccccc6)[nH]5)nn4)ccc3c2)[nH]1)C1CCOCC1` [compound 315] is under 1 nM; for `COC[C@H](NC(=O)OC)C(=O)N1CCC[C@H]1c1ncc(-c2ccc3cc(-c4ccc(-c5cnc([C@@H]6CCCN6C(=O)[C@H](NC(=O)OC)c6ccccc6)[nH]5)cc4)ccc3c2)[nH]1` [compound 316] it is under 1 nM.
The figure for `COC(=O)N[C@@H](C)C(=O)N1CCC[C@H]1c1ncc(-c2ccc3cc(-c4ccc(-c5cnc([C@@H]6CCCN6C(=O)[C@H](NC(=O)OC)c6ccccc6)[nH]5)cc4)ccc3c2)[nH]1` [compound 319] is under 1 nM.
The value for `COC(=O)NC(C(=O)N1CCC[C@H]1c1ncc(-c2ccc3cc(-c4ccc(-c5cnc([C@@H]6CCCN6C(=O)[C@H](NC(=O)OC)c6ccccc6)[nH]5)cc4)ccc3c2)[nH]1)[C@@H](C)O` (some centres unmarked) [compound 320] was under 1 nM.
For the molecule `COC(=O)N[C@@H](C)C(=O)N1CCC[C@H]1c1ncc(-c2ccc3cc(-c4ccc(-c5cnc([C@@H]6COCCN6C(=O)[C@H](NC(=O)OC)c6ccccc6)[nH]5)cc4)ccc3c2)[nH]1` [compound 322], the EC50 was under 1 nM.
With `COC(=O)N[C@H](C(=O)N1CCC[C@H]1c1ncc(-c2ccc3cc(-c4ccc(-c5cnc([C@@H]6COCCN6C(=O)[C@H](NC(=O)OC)c6ccccc6)[nH]5)cc4)ccc3c2)[nH]1)[C@@H](C)OC` [compound 323], the EC50 was under 1 nM.
The value for `COC(=O)N[C@H](C(=O)N1CCC[C@H]1c1ncc(-c2ccc3cc(-c4ccc(-c5cnc([C@@H]6COCCN6C(=O)[C@H](NC(=O)OC)c6ccccc6)[nH]5)cc4)ccc3c2)[nH]1)[C@@H](C)O` [compound 324] was under 1 nM; that for `COC(=O)N[C@@H](C)C(=O)N1CCOC[C@H]1c1ncc(-c2ccc3cc(-c4ccc(-c5cnc([C@@H]6CCCN6C(=O)[C@H](NC(=O)OC)c6ccccc6)[nH]5)cc4)ccc3c2)[nH]1` [compound 326] was under 1 nM; that for `COC(=O)N[C@H](C(=O)N1CCOC[C@H]1c1ncc(-c2ccc3cc(-c4ccc(-c5cnc([C@@H]6CCCN6C(=O)[C@H](NC(=O)OC)c6ccccc6)[nH]5)cc4)ccc3c2)[nH]1)[C@@H](C)OC` [compound 327] was under 1 nM.
The figure for `COC(=O)N[C@H](C(=O)N[C@@H](C)c1ncc(-c2ccc3cc(-c4ccc(-c5cnc([C@@H]6CCCN6C(=O)[C@H](NC(=O)OC)c6ccccc6)[nH]5)cc4)ccc3c2)[nH]1)[C@@H](C)OC` [compound 329] is under 1 nM; for `COC(=O)N[C@H](C(=O)N1CCC[C@H]1c1ncc(-c2ccc3cc(-c4ccc(-c5cnc([C@@H]6CCCN6C(=O)[C@H](NC(=O)OC)c6ccccc6)[nH]5)cn4)ccc3c2)[nH]1)C1CCOCC1` [compound 337] it is under 1 nM; for `COC(=O)N[C@@H](C)C(=O)N1CCC[C@H]1c1ncc(-c2ccc3cc(-c4ccc(-c5cnc([C@@H]6CCCN6C(=O)[C@H](NC(=O)OC)c6ccccc6)[nH]5)cn4)ccc3c2)[nH]1` [compound 338] it is under 1 nM.
The figure for `CC[C@H](C)C(NC(=O)OC)C(=O)N1CCC[C@H]1c1nc2ccc(-c3ccc4cc(-c5cnc([C@@H]6CCCN6C(=O)[C@@H](NC(=O)OC)[C@@H](C)CC)[nH]5)ccc4c3)cc2[nH]1` (some centres unmarked) [compound 346] is under 1 nM; for `COC(=O)N[C@H](C(=O)N1CCC[C@H]1c1ncc(-c2ccc3cc(-c4ccc5nc([C@@H]6CCCN6C(=O)[C@@H](NC(=O)OC)C6CCCCC6)[nH]c5c4)ccc3c2)[nH]1)C1CCCCC1` [compound 348] it is under 1 nM.
On to `COC(=O)N[C@H](C(=O)N1CCC[C@H]1c1ncc(-c2ccc3cc(-c4ccc5nc([C@@H]6COCCN6C(=O)[C@@H](NC(=O)OC)C6CCCC6)[nH]c5c4)ccc3c2)[nH]1)C1CCCC1` [compound 350], for which the EC50 was under 1 nM.
The value for `CCC(CC)[C@H](NC(=O)OC)C(=O)N1CCC[C@H]1c1ncc(-c2ccc3cc(-c4ccc5nc([C@@H]6COCCN6C(=O)[C@@H](NC(=O)OC)C(CC)CC)[nH]c5c4)ccc3c2)[nH]1` [compound 351] was under 1 nM; that for `CC[C@@H](C)[C@H](NC(=O)OC)C(=O)N1CCC[C@H]1c1ncc(-c2ccc3cc(-c4ccc5nc([C@@H]6COCCN6C(=O)[C@@H](NC(=O)OC)[C@H](C)CC)[nH]c5c4)ccc3c2)[nH]1` [compound 352] was under 1 nM.
With `CC[C@H](C)[C@H](NC(=O)OC)C(=O)N1CCC[C@H]1c1ncc(-c2ccc3cc(-c4ccc5nc([C@@H]6COCCN6C(=O)[C@@H](NC(=O)OC)[C@@H](C)CC)[nH]c5c4)ccc3c2)[nH]1` [compound 353], the EC50 is under 1 nM.
The value for `COC(=O)N[C@H](C(=O)N1CCC[C@H]1c1ncc(-c2ccc3cc(-c4ccc5nc([C@@H]6COCCN6C(=O)[C@@H](NC(=O)OC)[C@@H](C)OC)[nH]c5c4)ccc3c2)[nH]1)[C@@H](C)OC` [compound 354] was under 1 nM; that for `COC(=O)N[C@H](C(=O)N1CCC[C@H]1c1ncc(-c2ccc3cc(-c4ccc5nc([C@@H]6COCCN6C(=O)[C@@H](NC(=O)OC)[C@@H](C)O)[nH]c5c4)ccc3c2)[nH]1)[C@@H](C)O` [compound 355] was under 1 nM; that for `COC(=O)N[C@H](C(=O)N1CCC[C@H]1c1ncc(-c2ccc3cc(-c4ccc5nc([C@@H]6COCCN6C(=O)[C@@H](NC(=O)OC)C6CC6)[nH]c5c4)ccc3c2)[nH]1)C1CC1` [compound 356] was under 1 nM.
The value for `CC[C@H](NC(=O)OC)C(=O)N1CCC[C@H]1c1ncc(-c2ccc3cc(-c4ccc5nc([C@@H]6COCCN6C(=O)[C@H](CC)NC(=O)OC)[nH]c5c4)ccc3c2)[nH]1` [compound 357] was under 1 nM.

The record behind these values is US8877707B2, “Inhibitors of HCV NS5A” (Presidio Pharmaceuticals, Inc., priority 2010, dated 2014).
